Consider 13 molecules from US10508120B2, “TYK2 inhibitors and uses thereof” (Nimbus Lakshmi, Inc., priority 2017, dated 2019).

The target in assay [1] is human TYK2 (JH2domain-pseudokinase) (Homo sapiens (Human), UniProt P29597). In words: TYK2 JH2 Domain Binding Assay (KINOMEscan). A digest of the protocol:
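Pseudokinase domain binding was measured by qPCR of tagged, bead-retained kinase after 1 h room-temperature competition, with 0.9% DMSO and compound up to 30,000 nM in 3-fold steps. Hill-equation Kd, duplicate.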

For the next assay, the target named is JAK2 kinase domain (JH1) (Homo sapiens (Human), UniProt O60674). Kind of assay: JAK2 Radioactive Kinase Assay. It counts as biochemical. The following applies: for inhibition at 10 µM: read-out: JAK2 JH1% Inhibition @ 10 μM. A digest of the protocol:
(§1)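 Read-out is percent inhibition from a radioactive kinase reaction, measured with compound at 10 μM.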

Assay [2] deals with JAK2/JAK2 homdimeric complex (Homo sapiens (Human), UniProt O60674). Kind of assay: GM-CSF Induced pSTAT5 in Human PBMC. The following applies: GM-CSF 5 ng/mL for 20 minutes, pSTAT5 by MSD, read-out: PBMC_GMCSF_pSTAT5 IC50. The format is cell-based.
Sequence of JAK2/JAK2 homdimeric complex (O60674 whole entry): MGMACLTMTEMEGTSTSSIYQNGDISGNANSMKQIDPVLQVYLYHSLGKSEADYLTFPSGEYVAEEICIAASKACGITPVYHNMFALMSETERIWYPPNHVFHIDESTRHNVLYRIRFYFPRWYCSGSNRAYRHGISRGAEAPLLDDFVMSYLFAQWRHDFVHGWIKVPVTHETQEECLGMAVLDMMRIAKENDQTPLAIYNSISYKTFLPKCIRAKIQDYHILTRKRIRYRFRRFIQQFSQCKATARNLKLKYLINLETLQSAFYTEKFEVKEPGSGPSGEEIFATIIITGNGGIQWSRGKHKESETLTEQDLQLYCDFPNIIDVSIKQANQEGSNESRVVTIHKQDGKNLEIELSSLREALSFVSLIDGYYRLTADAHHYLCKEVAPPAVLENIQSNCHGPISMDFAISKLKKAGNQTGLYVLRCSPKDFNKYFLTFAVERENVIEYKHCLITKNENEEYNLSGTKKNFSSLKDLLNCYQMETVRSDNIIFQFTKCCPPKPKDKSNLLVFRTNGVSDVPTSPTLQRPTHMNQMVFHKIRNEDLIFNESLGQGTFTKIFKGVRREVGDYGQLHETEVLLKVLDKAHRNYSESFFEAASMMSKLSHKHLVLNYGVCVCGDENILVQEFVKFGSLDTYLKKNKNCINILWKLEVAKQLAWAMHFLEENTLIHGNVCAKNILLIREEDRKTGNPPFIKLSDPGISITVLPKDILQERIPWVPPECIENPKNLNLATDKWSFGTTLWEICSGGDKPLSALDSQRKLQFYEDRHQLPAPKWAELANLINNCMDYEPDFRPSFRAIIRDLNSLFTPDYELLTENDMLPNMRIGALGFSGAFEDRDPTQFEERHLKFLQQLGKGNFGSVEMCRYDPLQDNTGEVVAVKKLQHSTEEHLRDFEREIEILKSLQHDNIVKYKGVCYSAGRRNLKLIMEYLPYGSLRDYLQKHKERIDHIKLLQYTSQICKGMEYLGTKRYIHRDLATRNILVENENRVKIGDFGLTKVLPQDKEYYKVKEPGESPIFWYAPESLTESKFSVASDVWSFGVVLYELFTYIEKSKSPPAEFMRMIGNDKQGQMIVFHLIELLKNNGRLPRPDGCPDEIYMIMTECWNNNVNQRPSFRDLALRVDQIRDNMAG
Sequence of JAK2/JAK2 homdimeric complex (P32927 17-897 partner): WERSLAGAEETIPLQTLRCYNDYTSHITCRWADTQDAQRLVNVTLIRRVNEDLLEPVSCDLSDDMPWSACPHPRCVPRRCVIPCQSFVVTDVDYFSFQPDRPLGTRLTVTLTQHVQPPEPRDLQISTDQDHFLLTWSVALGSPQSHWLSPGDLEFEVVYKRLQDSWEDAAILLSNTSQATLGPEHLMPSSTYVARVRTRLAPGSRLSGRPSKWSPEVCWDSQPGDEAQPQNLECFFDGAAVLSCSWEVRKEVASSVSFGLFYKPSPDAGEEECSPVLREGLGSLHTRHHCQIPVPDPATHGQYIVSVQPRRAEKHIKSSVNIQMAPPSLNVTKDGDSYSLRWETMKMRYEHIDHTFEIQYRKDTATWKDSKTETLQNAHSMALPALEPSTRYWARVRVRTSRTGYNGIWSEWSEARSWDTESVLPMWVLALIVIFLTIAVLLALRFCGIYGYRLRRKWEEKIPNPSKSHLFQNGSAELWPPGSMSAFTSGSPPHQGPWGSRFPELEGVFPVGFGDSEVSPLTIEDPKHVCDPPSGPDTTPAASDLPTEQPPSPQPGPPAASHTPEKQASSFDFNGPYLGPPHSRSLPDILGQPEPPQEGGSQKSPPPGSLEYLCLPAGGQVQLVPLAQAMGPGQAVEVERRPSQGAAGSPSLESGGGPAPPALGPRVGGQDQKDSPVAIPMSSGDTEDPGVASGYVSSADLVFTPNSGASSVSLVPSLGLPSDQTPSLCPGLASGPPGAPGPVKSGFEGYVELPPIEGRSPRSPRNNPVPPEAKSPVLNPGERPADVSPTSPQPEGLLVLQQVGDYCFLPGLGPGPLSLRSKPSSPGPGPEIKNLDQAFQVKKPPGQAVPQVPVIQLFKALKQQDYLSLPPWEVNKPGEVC
Assay [3] concerns the target Tyk2/JAK2 (heterodimeric complex) (Homo sapiens (Human), UniProt P29597). In words: IL-12 Induced pSTAT4 in Human PBMC. The format is cell-based. As to conditions: 1.7 ng/mL IL-12. An excerpt:
The IL-12 Induced pSTAT4 assay evaluates the inhibition of IL-12 induced STAT4 phophorylation mediated by Tyk2/JAK2 (heterodimeric complex).

A further assay has as its target Tyk2 kinase domain (DH1) (Homo sapiens (Human), UniProt P29597). Kind of assay: Tyk2 Radioactive Kinase Assay. The format is biochemical. The following applies: for inhibition at 10 µM: read-out: Tyk2 JH1% Inhibition @ 10 μM. A digest of the protocol: as §1

Sequence of Tyk2/JAK2 (heterodimeric complex) (P29597 whole entry, other chains not shown): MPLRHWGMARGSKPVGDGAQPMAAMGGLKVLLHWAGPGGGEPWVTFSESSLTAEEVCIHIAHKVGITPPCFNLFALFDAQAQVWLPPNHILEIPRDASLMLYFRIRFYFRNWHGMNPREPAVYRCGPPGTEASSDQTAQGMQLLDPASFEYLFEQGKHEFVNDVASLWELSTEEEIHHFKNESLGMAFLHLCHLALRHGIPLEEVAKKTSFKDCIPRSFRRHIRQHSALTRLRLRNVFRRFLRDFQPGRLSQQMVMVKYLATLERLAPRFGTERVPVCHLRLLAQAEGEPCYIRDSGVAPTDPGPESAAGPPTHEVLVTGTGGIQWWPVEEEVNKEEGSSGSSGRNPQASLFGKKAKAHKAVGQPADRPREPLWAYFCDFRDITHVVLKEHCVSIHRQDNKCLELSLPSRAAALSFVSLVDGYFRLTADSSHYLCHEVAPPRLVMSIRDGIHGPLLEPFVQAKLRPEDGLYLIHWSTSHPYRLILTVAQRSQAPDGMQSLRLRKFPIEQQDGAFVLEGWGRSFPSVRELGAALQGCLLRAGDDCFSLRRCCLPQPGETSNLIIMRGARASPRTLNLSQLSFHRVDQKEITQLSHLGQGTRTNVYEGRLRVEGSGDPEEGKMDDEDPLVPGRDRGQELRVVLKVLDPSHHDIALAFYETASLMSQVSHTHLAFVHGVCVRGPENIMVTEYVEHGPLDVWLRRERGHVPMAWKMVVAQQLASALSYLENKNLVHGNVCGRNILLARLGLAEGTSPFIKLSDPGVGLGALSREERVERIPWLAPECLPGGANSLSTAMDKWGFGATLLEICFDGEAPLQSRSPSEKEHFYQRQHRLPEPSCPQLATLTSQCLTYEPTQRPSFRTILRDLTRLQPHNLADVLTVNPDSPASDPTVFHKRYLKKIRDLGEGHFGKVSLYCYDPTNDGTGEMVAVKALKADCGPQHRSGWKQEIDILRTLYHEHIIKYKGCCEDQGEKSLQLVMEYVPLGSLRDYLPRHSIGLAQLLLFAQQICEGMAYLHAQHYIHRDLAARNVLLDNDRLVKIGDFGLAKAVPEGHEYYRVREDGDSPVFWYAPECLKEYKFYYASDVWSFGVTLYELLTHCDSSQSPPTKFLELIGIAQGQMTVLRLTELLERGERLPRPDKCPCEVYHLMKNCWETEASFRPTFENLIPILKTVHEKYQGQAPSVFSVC
Sequence of JAK2 kinase domain (JH1) (O60674 849-1124): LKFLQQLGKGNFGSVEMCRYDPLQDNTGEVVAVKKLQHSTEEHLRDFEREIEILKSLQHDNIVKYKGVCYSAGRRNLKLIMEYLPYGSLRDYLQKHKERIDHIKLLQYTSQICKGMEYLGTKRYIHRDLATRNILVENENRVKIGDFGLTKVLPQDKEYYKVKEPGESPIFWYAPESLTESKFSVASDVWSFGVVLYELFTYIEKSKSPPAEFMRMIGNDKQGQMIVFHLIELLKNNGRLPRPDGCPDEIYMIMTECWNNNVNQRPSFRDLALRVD
Sequence of Tyk2 kinase domain (DH1) (P29597 897-1176): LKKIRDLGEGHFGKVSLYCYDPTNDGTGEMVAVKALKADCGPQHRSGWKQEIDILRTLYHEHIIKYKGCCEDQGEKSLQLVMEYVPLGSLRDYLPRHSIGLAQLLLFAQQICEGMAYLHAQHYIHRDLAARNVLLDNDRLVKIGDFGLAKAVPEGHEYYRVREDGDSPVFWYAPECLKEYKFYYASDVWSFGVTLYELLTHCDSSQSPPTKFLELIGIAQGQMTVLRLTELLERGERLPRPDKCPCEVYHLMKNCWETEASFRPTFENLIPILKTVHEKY
Sequence of human TYK2 (JH2domain-pseudokinase) (P29597 556-888): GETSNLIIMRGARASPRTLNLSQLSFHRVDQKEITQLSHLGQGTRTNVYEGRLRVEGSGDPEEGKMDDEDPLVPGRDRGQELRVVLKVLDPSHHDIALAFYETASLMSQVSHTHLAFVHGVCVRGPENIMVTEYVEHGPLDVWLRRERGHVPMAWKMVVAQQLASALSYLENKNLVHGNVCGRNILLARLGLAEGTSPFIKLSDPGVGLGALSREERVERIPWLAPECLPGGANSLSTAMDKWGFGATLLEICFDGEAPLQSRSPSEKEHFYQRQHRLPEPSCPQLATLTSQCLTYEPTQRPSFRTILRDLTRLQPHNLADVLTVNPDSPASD

What is called Kd is the free concentration of one partner at which half of the binding sites on the other are occupied at equilibrium, for simple one-to-one binding. Read a high Kd as a looser complex. Usually IC50 stands for the concentration needed to halve the response being measured. Consider `[2H]C([2H])([2H])Oc1ncccc1Nc1cc(NC)n2ncc(C(=O)N[C@H]3CC[C@H]3O)c2n1` (stereo in doubt) [I-399, N-((1 S,2R)-2-hydroxycyclobutyl)-5-((2-(methoxy-d3)pyridin-3-yl)amino)-7-(methylamino) pyrazolo[1,5-a]pyrimidine-3-carboxamide], for which, in assay [1], the Kd is less than 0.2 nM. For the same molecule, the “JAK2 JH1% Inhibition @ 10 μM” value on JAK2 kinase domain (JH1) (compound at 10 μM, ATP 10 μM) was “A (percent inhibition at 10 μM lower than 50)”. The IC50 in assay [2] is more than 12500 nM; in assay [3], less than 100 nM. Besides, on Tyk2 kinase domain (DH1) (compound at 10 μM, ATP 10 μM), the “Tyk2 JH1% Inhibition @ 10 μM” value is reported as “A (percent inhibition at 10 μM lower than 50)”.

The inhibition is the relative decrease from the control value, in per cent. For the molecule `CNc1cc(Nc2cccn(-c3ccc(C(=O)N4CCCC4)cn3)c2=O)nc2c(C(=O)NC3CCC3)cnn12` [I-121], the Kd in assay [1] was less than 0.2 nM. Also, the inhibition at 10 µM on JAK2 kinase domain (JH1) (compound at 10 μM, ATP 10 μM) was less than 50%; at Tyk2 kinase domain (DH1) (compound at 10 μM, ATP 10 μM) it was less than 50%. Further, the IC50 in assay [2] is more than 12500 nM; in assay [3], 100 to 500 nM.

Take `CNc1cc(Nc2cccn(-c3cc(C)on3)c2=O)nc2c(C(=O)NC3CCC3)cnn12` [I-160]: the dissociation constant (Kd) in assay [1] was less than 0.2 nM. Moreover, the inhibition at 10 µM was less than 50% at JAK2 kinase domain (JH1) (compound at 10 μM, ATP 10 μM) and less than 50% on Tyk2 kinase domain (DH1) (compound at 10 μM, ATP 10 μM). Further, the half-inhibitory concentration (IC50) in assay [2] was more than 12500 nM; in assay [3], less than 100 nM.

For the molecule `CCn1cc(Cl)cc(Nc2cc(NC)n3ncc(C(=O)NC4CC4)c3n2)c1=O` [I-133, 5-((5-chloro-1-ethyl-2-oo-1,2-dihydropyridin-3-yl)amino)-N-cyclopropyl-7-(methylamino)pyrazolo[1,5-a]pyrimidine-3-carboxamide], in assay [1], the Kd was less than 0.2 nM. In addition, the inhibition at 10 µM was less than 50% at JAK2 kinase domain (JH1) (compound at 10 μM, ATP 10 μM) and less than 50% at Tyk2 kinase domain (DH1) (compound at 10 μM, ATP 10 μM). Further, the IC50 in assay [2] was more than 12500 nM; in assay [3], less than 100 nM.

On to `CNc1cc(Nc2cc(F)cnc2OC(C)C)nc2c(C(=O)N[C@H]3C[C@H]3F)cnn12` [I-211], for which the Kd in assay [1] was 0.2 to 1 nM. The inhibition at 10 µM at JAK2 kinase domain (JH1) (compound at 10 μM, ATP 10 μM) was less than 50%; on Tyk2 kinase domain (DH1) (compound at 10 μM, ATP 10 μM) it was less than 50%. In addition, the IC50 in assay [2] was more than 50000 nM; in assay [3] it was 100 to 500 nM.

For the molecule `[2H]C([2H])([2H])Nc1cc(Nc2cccnc2OC)nc2c(C(=O)N[C@@H]3C[C@@H]3F)cnn12` (stereo in doubt) [I-374, N-((1R,2S)-2-fluorocyclopropyl)-5-((2-methoxypyridin-3-yl)amino)-7-((methyl-d3)amino)pyrazolo[1,5-a]pyrimidine-3-carboxamide], the Kd in assay [1] was less than 0.2 nM. Besides, the inhibition at 10 µM at JAK2 kinase domain (JH1) (compound at 10 μM, ATP 10 μM) was less than 50%; at Tyk2 kinase domain (DH1) (compound at 10 μM, ATP 10 μM), less than 50%. Besides, the IC50 in assay [2] is more than 50000 nM; in assay [3] it was less than 100 nM.

In assay [1], `CNc1cc(-c2cn(C(C)C)c3ncccc23)nc2c(C(=O)N[C@@H]3CC[C@@H]3O)cnn12` [I-578] returned a Kd of less than 0.2 nM. For the same molecule, the inhibition at 10 µM at JAK2 kinase domain (JH1) (compound at 10 μM, ATP 10 μM) was less than 50%; on Tyk2 kinase domain (DH1) (compound at 10 μM, ATP 10 μM), less than 50%. Further, the figures for the IC50 in assay [2] and in assay [3] were more than 50000 nM and less than 100 nM, respectively.

Molecule `CNc1cc(Nc2cccn(C3CCCCC3)c2=O)nc2c(C(=O)N[C@@H]3CC[C@H]3O)cnn12` [I-1002] registered a Kd in assay [1] of less than 0.2 nM. In addition, on JAK2 kinase domain (JH1) (10 μM compound, 10 μM ATP), the “JAK2 JH1% Inhibition @ 10 μM” value is listed as “A (percent inhibition at 10 μM lower than 50)”. The figures for the IC50 in assay [2] and in assay [3] were more than 50000 nM and less than 100 nM, respectively. Besides, on Tyk2 kinase domain (DH1) (10 μM compound, 10 μM ATP), the “Tyk2 JH1% Inhibition @ 10 μM” value is “A (percent inhibition at 10 μM lower than 50)”.

As for `CNc1cc(-c2cn(C(C)C)c3ncccc23)nc2c(C(=O)NC3CCC3)cnn12` [I-224], the Kd in assay [1] was less than 0.2 nM. The inhibition at 10 µM is less than 50% on JAK2 kinase domain (JH1) (compound at 10 μM, ATP 10 μM) and less than 50% on Tyk2 kinase domain (DH1) (compound at 10 μM, ATP 10 μM). The IC50 was more than 50000 nM in assay [2] and less than 100 nM in assay [3].

Consider `CNc1cc(-c2cn(C(C)C)c3ncc(Cl)cc23)nc2c(C(N)=O)cnn12` [I-272, 5-(5-chloro-1-isopropyl-1H-pyrrolo[2,3-b]pyridin-3-yl)-7-(methylamino) pyrazolo[1,5-a]pyrimidine-3-carboxamide], for which the Kd in assay [1] was less than 0.2 nM. The inhibition at 10 µM on JAK2 kinase domain (JH1) (compound at 10 μM, ATP 10 μM) is less than 50%; at Tyk2 kinase domain (DH1) (compound at 10 μM, ATP 10 μM), less than 50%. Besides, the concentration for half-maximal inhibition (IC50) in assay [2] was more than 12500 nM; in assay [3], less than 100 nM.

In assay [1], `CNc1cc(Nc2cc(Cl)cn([C@H]3CCCOC3)c2=O)nc2c(C(=O)NC3CC3)cnn12` [I-782] yielded a Kd of less than 0.2 nM. In addition, the inhibition at 10 µM at JAK2 kinase domain (JH1) (compound at 10 μM, ATP 10 μM) is less than 50%; on Tyk2 kinase domain (DH1) (compound at 10 μM, ATP 10 μM), less than 50%. The IC50 is more than 50000 nM in assay [2] and less than 100 nM in assay [3].

`CNc1cc(Nc2cccnc2OC2CC2)nc2c(C(=O)NCC3(CO)CC3)cnn12` [I-426] registered a Kd in assay [1] of less than 0.2 nM. In addition, the inhibition at 10 µM on JAK2 kinase domain (JH1) (compound at 10 μM, ATP 10 μM) is less than 50%; on Tyk2 kinase domain (DH1) (compound at 10 μM, ATP 10 μM), less than 50%. Further, the IC50 was more than 50000 nM in assay [2] and less than 100 nM in assay [3].

`CNc1cc(Nc2cccn(-c3ncc(C)s3)c2=O)nc2c(C(=O)NC3CCC3)cnn12` [I-263]: the Kd in assay [1] was less than 0.2 nM. The inhibition at 10 µM on JAK2 kinase domain (JH1) (compound at 10 μM, ATP 10 μM) is less than 50%; at Tyk2 kinase domain (DH1) (compound at 10 μM, ATP 10 μM), less than 50%. The concentration for half-maximal inhibition (IC50) is more than 2500 nM in assay [2] and less than 100 nM in assay [3].
